Laboratory results from patent US9176118B2, “Methods employing insect models for determining intestinal absorption of chemical compounds” (Entomopharm ApS, priority 2009, dated 2015).

Assay: Decapitated locust model: hemolymph drug concentration by LCMS after administration via esophageal catheter
Conditions: male, Locusta migratoria (locust), in vivo
Description: The insects may be obtained from local suppliers or bred in house. The grasshoppers were reared under crowded conditions at 28° C. and a 12:12 dark:light photocycle and fed fresh grass and bran. Before experiments the grasshoppers were fed ecologically cultivated wheat for two weeks. Animals used are adult males (in some experiments females) between two to four weeks after adult emergence. After decapitation, test compounds are administrated via a catheter or a probe inserted into the midgut of the animal. At various times after administration hemolymph samples are taken for quantitative determination of drug concentration in the hemolymph. The samples are snap-frozen and stored until analyses. Drug concentration is analysed by HPLC, LC/MSMS or other methods.
The head of male locusts (Locusta migratoria), which have been starving for 12 hours, was cut off and a plastic catheter was inserted under microscope into the esophagus. 20 μl of quinidine (0.1 mg/ml) was administered via the catheter by using a Hamilton syringe.
(§1) 10 and 30 minutes after administration (10 μl) hemolymph was collected with a calibrated capillary tube by puncturing the ventral membrane anterior to the thorax and immediately blown into a tube containing 40 μl aqua dest and 100 μl of acetonitrile. Each sample was centrifuged for 5 minutes (10 000g at 4° C.). 100 μl of the supernatants were transferred to new test tubes for LCMS analysis.
as §1, with “The head of male locusts (Locusta migratoria), which have been starving for 12 hours, was cut off and a plastic catheter was inserted under microscope into the esophagus. 20 μl of quinidine (1 mg/ml) was administered via the catheter by using a Hamilton syringe. 10 and” for “10 and”
The head of male locusts (Locusta migratoria), which have been starving for 12 hours, was cut off and a plastic catheter was inserted under microscope into the esophagus. 20 μl of propranolol (0.1 mg/ml) was administered via the catheter by using a Hamilton syringe.
as §1, with “analysis. […]” for “analysis.”

Cn1c(=O)c2c(ncn2C)n(C)c1=O [caffeine]
concentration at 10 min (2 µg per animal): 177 ng/mL | concentration at 30 min (2 µg per animal): 276 ng/mL | concentration at 10 min (20 µg per animal): 1150 ng/mL | concentration at 30 min (20 µg per animal): 1660 ng/mL
